Reference: EP3928775A1, “USE OF ANTI[…] FOR TREATING THE COVID-19 DISEASE” (priority 2020, dated 2021)
Like-named read-outs stand apart in the source and are kept apart here.

How the values were obtained:
Covid-19 = format: in vivo, human
SARS-CoV-2 = conditions: in-vitro study, reference 11; cited from earlier work
[1] = Patients admitted to the hospital with Covid-19, exposed vs not exposed

Structure (SMILES)	risk of intubation or death (in words) (Covid-19; [1])	antiviral effects on SARS-CoV-2 (SARS-CoV-2)	risk of intubation or death (in words) (Covid-19; in vivo)
CN(C)CCC[C@@]1(c2ccc(F)cc2)OCc2cc(C#N)ccc21 [Escitalopram]	significantly and substantially reduced	has not be observed	–
COc1ccc(C(CN(C)C)C2(O)CCCCC2)cc1 (stereo not drawn) [Venlafaxine]	significantly and substantially reduced	–	–
Fc1ccc([C@@H]2CCNC[C@H]2COc2ccc3c(c2)OCO3)cc1 [Paroxetine]	–	has not be observed	–
CNCCC(Oc1ccc(C(F)(F)F)cc1)c1ccccc1 (stereo not drawn) [Fluoxetine]	–	antiviral effects	significantly and substantially reduced
